# Reference: patent publication US12180226B2, “Spirotricycle RIPK1 inhibitors and methods of uses thereof” (Merck Sharp & Dohme LLC, priority 2021, dated 2024)
# Where a name gives a salt, the structure may show the parent alone.
# Target: RIPK1 (recombinant GST-RIPK1 kinase domain, residues 1-327) (Homo sapiens (Human), UniProt Q13546)
# Experiment: RIPK1-ADP-Glo Enzymatic Assay
# Format: biochemical
# Conditions: ADP-Glo; 25 nM GST-RIPK1, 300 μM ATP; assay lower limit ~25 nM; read-out: RIPK1 V0 Ec50
# Summary of the method: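 ADP-Glo luminescence read after 150 min kinase reaction (300 μM ATP, 3 μM dephosphorylated MBP) using 25 nM Sf21-made GST-kinase domain (1-327), preincubated 30 min with compound. HEPES pH 7.3, 1% DMSO; ten-point 1:3 series from 100000 nM, EC50 via four-parameter sigmoidal regression.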
# RIPK1 (recombinant GST-RIPK1 kinase domain, residues 1-327), sequence (Q13546 1-327): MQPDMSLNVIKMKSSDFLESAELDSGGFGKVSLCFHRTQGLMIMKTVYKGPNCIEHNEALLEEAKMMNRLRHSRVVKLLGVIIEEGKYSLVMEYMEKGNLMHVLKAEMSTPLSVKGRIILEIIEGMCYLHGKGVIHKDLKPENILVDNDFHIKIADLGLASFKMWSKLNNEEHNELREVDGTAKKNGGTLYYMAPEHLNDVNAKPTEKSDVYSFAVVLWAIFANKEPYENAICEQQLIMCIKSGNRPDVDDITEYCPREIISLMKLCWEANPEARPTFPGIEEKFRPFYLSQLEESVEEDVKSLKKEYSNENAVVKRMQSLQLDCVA
row,Compound,EC50
1,"O=C(c1ccccc1)N1CC2(C1)O[C@@H]1CC[C@@H](c3ccccc3F)N1C2=O [Example 1.19, (5′S,7a′R)-1-benzoyl-5′-(2-fluorophenyl)tetrahydro-3′H-spiro[azetidine-3,2′-pyrrolo[2,1-b]oxazol]-3′-one]",82.9 nM
2,"CC(F)(F)c1ccnc(N2CCC3(CC2)O[C@@H]2CC[C@@H](c4ccccc4)N2C3=O)c1 [Example 4.262, (5′S,7a′R)-1-[4-(1,1-difluoroethyl)pyridin-2-yl]-5′-phenyltetrahydro-3′H-spiro[piperidine-4,2′-pyrrolo[2,1-b] [1,3]oxazol]-3′-one]",256 nM
3,"O=C(c1ccccc1)N1CCC2(CC1)O[C@@H]1CC[C@@H](c3ccc(F)cc3)N1C2=O [Example 2.8, (5′S,7a′R)-1-benzoyl-5′-(4-fluorophenyl)tetrahydro-3′H-spiro[piperidine-4,2′-pyrrolo[2,1-b]oxazol]-3′-one]",36.8 nM
4,"O=C1N2[C@H](OC13CCN(c1ccnc4c(F)cnn14)CC3)[C@H](O)C[C@H]2c1ccccc1 [Example 4.149, (5′S,7′R,7a′R)-1-(3-fluoropyrazolo[1,5-a]pyrimidin-7-yl)-7′-hydroxy-5′-phenyltetrahydro-3′H-spiro[piperidine-4,2′-pyrrolo[2,1-b] [1,3]oxazol]-3′-one]",< 25 nM
5,"O=C1N2[C@@H](CC[C@H]2C2CCCCC2)OC12CCN(c1ccnc3c(F)cnn13)CC2 [Example 4.87, (5′S,7a′R)-5′-cyclohexyl-1-(3-fluoropyrazolo [1,5-a]pyrimidin-7-yl)tetrahydro-3′H-spiro[piperidine-4,2′-pyrrolo[2,1-b]oxazol]-3′-one, TFA salt]",< 25 nM
6,"N#Cc1ccc(N2CCC3(CC2)O[C@@H]2CC[C@@H](c4ccccc4F)N2C3=O)n2ncnc12 [Example 4.249, 5-[(5′S,7a′R)-5′-(2-fluorophenyl)-3′-oxotetrahydro-1H,3′H-spiro[piperidine-4,2′-pyrrolo[2,1-b] [1,3]oxazol]-1-yl][1,2,4]triazolo[1,5-a] pyridine-8-carbonitrile]",< 25 nM
7,"O=C1N2[C@@H](CC[C@H]2c2cc(F)cc(F)c2)OC12CCN(c1nccc3nccn13)CC2 [Example 4.82, (5′S,7a′R)-5′-(3,5-difluorophenyl)-1-(imidazo[1,2-c]pyrimidin-5-yl)tetrahydro-3′H-spiro[piperidine-4,2′-pyrrolo[2,1-b]oxazol]-3′-one, TFA salt]",25 nM
8,"N#Cc1ccc(N2CCC3(CC2)O[C@@H]2CC[C@@H](c4ccccc4)N2C3=O)n2ncc(-c3ncco3)c12 [Example 4.181, 3-(1,3-oxazol-2-yl)-7-[(5′S,7a′R)-3′-oxo-5′-phenyltetrahydro-1H,3′H-spiro[piperidine-4,2′-pyrrolo[2,1-b] [1,3]oxazol]-1-yl]pyrazolo[1,5-a] pyridine-4-carbonitrile]",110 nM
9,"CC(C)(C)OC(=O)c1ccc(N2CCC3(CC2)O[C@@H]2CC[C@@H](c4ccccc4)N2C3=O)nc1 [Example 4.198, tert-butyl 6-[(5′S,7a′R)-3′-oxo-5′-phenyltetrahydro-1H,3′H-spiro[piperidine-4,2′-pyrrolo[2,1-b] [1,3]oxazol]-1-yl]pyridine-3-carboxylate]",249 nM
10,"O=C1N2[C@@H](CC[C@H]2c2ccccc2)OC12CCN(c1ccc(-c3nc4ccccc4[nH]3)cn1)CC2 [Example 4.166, (5′S,7a′R)-1-[5-(1H-benzimidazol-2-yl)pyridin-2-yl]-5′-phenyltetrahydro-3′H-spiro[piperidine-4,2′-pyrrolo[2,1-b] [1,3]oxazol]-3′-one]",56.4 nM
11,"CSc1nc(C)cc(N2CCC3(CC2)O[C@@H]2CC[C@@H](c4ccccc4)N2C3=O)n1 [Example 4.36, (5′S,7a′R)-1-[6-methyl-2-(methylsulfanyl)pyrimidin-4-yl]-5′-phenyltetrahydro-3′H-spiro[piperidine-4,2′-pyrrolo[2,1-b] [1,3]oxazol]-3′-one]",37.4 nM
12,"CC1CN(c2ncnc3ccnn23)CCC12O[C@@H]1CC[C@@H](c3cc(F)cc(F)c3)N1C2=O (stereo partly drawn) [Example 4.264, (5′S,7a′R)-5′-(3,5-difluorophenyl)-3-methyl-1-(pyrazolo[1,5-a] [1,3,5]triazin-4-yl)tetrahydro-3′H-spiro[piperidine-4,2′-pyrrolo[2,1-b] [1,3]oxazol]-3′-one]",< 25 nM
13,"CSc1nc(N2CCC3(CC2)O[C@@H]2CC[C@@H](c4cc(F)cc(F)c4)N2C3=O)n2nccc2n1 [Example 4.86, (5′S,7a′R)-5′-(3,5-difluorophenyl)-1-(2-(methylthio)pyrazolo [1,5-a][1,3,5]triazin-4-yl)tetrahydro-3′H-spiro[piperidine-4,2′-pyrrolo[2,1-b]oxazol]-3′-one, TFA salt]",269 nM
14,"O=C1N2[C@@H](CC[C@H]2c2ccccc2)OC12CCN(c1ncnn3ccnc13)CC2 [Example 4.227, (5′S,7a′R)-1-(imidazo[2,1-f] [1,2,4]triazin-4-yl)-5′-phenyltetrahydro-3′H-spiro[piperidine-4,2′-pyrrolo[2,1-b] [1,3]oxazol]-3′-one]",27.3 nM
15,"O=C1N2[C@@H](CC[C@H]2c2ccccc2)OC12CCN(c1cc(-c3ccco3)ccn1)CC2 [Example 4.169, (5′S,7a′R)-1-[4-(furan-2-yl)pyridin-2-yl]-5′-phenyltetrahydro-3′H-spiro[piperidine-4,2′-pyrrolo[2,1-b] [1,3]oxazol]-3′-one]",26.4 nM

# Further lines, results first:
row,EC50,Compound
1,117 nM,"Cc1nc(N2CCC3(CC2)O[C@@H]2CC[C@@H](c4ccccc4)N2C3=O)ncc1-c1ncn(C)n1 [Example 21.4, (5′S,7a′R)-1-[4-methyl-5-(1-methyl-1H-1,2,4-triazol-3-yl)pyrimidin-2-yl]-5′-phenyltetrahydro-3′H-spiro[piperidine-4,2′-pyrrolo[2,1-b][1,3]oxazol]-3′-one]"
2,41.3 nM,"COc1cccc(F)c1C(=O)N1CCC2(CC1)O[C@@H]1CC[C@@H](c3cc(F)cc(F)c3)N1C2=O [Example 6.72, (5′S,7a′R)-5′-(3,5-difluorophenyl)-1-(2-fluoro-6-methoxy-benzene-1-carbonyl) tetrahydro-3′H-spiro [piperidine-4,2′-pyrrolo[2,1-b][1,3]-oxazol]-3′-one]"
3,< 25 nM,"N#Cc1cccc(C(=O)N2CCC3(CC2)O[C@@H]2CC[C@@H](c4ccccc4)N2C3=O)c1 [Example 6.153, 3-[(5′S,7a′R)-3′-oxo-5′-phenyltetrahydro-1H,3′H-spiro[piperi-dine-4,2′-pyrrolo[2,1-b][1,3]oxazole]-1-carbonyl]benzonitrile]"
4,< 25 nM,"COc1cccc(C(=O)N2CCC3(CC2)O[C@@H]2CC[C@@H](c4cccc(F)c4)N2C3=O)c1 [Example 6.117, (5′S,7a′R)-5′-(3-fluorophenyl)-1-(3-methoxybenzene-1-carbonyl)tetrahydro-3′H-spiro[piperidine-4,2′-pyrrolo[2,1-b] [1,3]oxazol]-3′-one]"
5,< 25 nM,"O=C1N2[C@@H](CC[C@H]2c2cc(F)cc(F)c2)OC12CCN(c1ccc(Br)c3ncnn13)CC2 [Example 13.7, (5′S,7a′R)-1-(8-bromo-[1,2,4]triazolo[1,5-a]pyridin-5-yl)-5′-(3,5-difluorophenyl)tetrahydro-3′H-spiro[piperidine-4,2′-pyrrolo[2,1-b]oxazol]-3′-one]"
6,< 25 nM,"N#Cc1ccc(N2CCC3(CC2)O[C@@H]2CC[C@@H](c4cc(F)cc(F)c4)N2C3=O)n2ncnc12 [Example 14.2, 5-((5′S,7a′R)-5′-(3,5-difluorophenyl)-3′-oxotetrahydro-3′H-spiro[piperidine-4,2′-pyrrolo[2,1-b]oxazol]-1-yl)-[1,2,4]triazolo[1,5-a]pyridine-8-carbonitrile, TFA salt]"
7,108 nM,"N#Cc1cncc([C@@H]2CC[C@H]3SC4(CCN(C(=O)c5ccccc5)CC4)C(=O)N32)c1 [Example 7.4, 5-[(5′S,7a′R)-1-(benzenecarbonyl)-3′-oxotetrahydro-3′H-spiro[piperidine-4,2′-pyrrolo[2,1-b][1,3]thiazol]-5′-yl]pyridine-3-carbonitrile]"
8,< 25 nM,"O=C(c1cccc(F)c1F)N1CCC2(CC1)O[C@@H]1CC[C@@H](c3cc(F)cc(F)c3)N1C2=O [Example 5.3, (5′S,7a′R)-1-(2,3-difluoro-benzene-1-carbonyl)-5′-(3,5-difluorophenyl)tetra-hydro3′H-spiro[piperidine-4,2′-pyrrolo[2,1-b][1,3]oxazol]-3′-one]"
9,339 nM,"O=C1N2[C@@H](CC[C@H]2c2cc(F)cc(F)c2)OC12CCN(c1nnc3cccnn13)CC2 [Example 13.9, (5′S,7a′R)-1-([1,2,4]triazolo[4,3-b]pyridazin-3-yl)-5′-(3,5-difluorophenyl)tetrahydro-3′H-spiro[piperidine-4,2′-pyrrolo[2,1-b]oxazol]-3′-one, TFA salt]"
10,< 25 nM,"O=C(c1ccoc1)N1CCC2(CC1)O[C@@H]1CC[C@@H](c3ccccc3)N1C2=O [Example 6.145, (5′S,7a′R)-1-(furan-3-carbonyl)-5′-phenyl-tetrahydro-3′H-spiro [piperidine-4,2′-pyrrolo[2,1-b][1,3]oxazol]-3′-one]"
11,392 nM,"N#Cc1ccc(C(=O)N2CCC3(CC2)O[C@@H]2CC[C@@H](c4cc(F)cc(F)c4)N2C3=O)c(Cl)c1 [Example 5.22, 3-chloro-4-((5′S,7a′R)-5′-(3,5-difluorophenyl)-3′-oxotetrahydro-3′H-spiro [piperidine-4,2′-pyrrolo-[2,1-b]oxazole]-1-carbon-yl)benzonitrile]"
12,188 nM,"N#Cc1ccccc1C(=O)N1CCC2(CC1)O[C@@H]1CC[C@@H](c3cccc(F)c3)N1C2=O [Example 6.129, 2-[(5′S,7a′R)-5′-(3-fluorophenyl)-3′-oxotetrahydro-1H,3′H-spiro[piperidine-4,2′-pyrrolo[2,1-b][1,3]-oxazole]-1-carbonyl] benzonitrile]"
